# Laboratory results: article PMC8661056, “Synthesis and Evaluation of [^11C]7-Halogen-2-Phenyl Isoindolone Derivatives: Potential PET Radioligands for in vivo Imaging of 5-HT2C Receptors” (Frontiers in Neuroscience, 2021)
# Assays:
# 5-HT2CR [1] = tested on: 5-HT2CR; set-up: method as in Neelamegam et al., 2014; details: PET imaging; ref Neelamegam et al., 2014; cited from earlier work
# [2] = lipophilicity, octanol/phosphate buffer partition; type: physicochemical; details: pH 7.4, read-out: log P7.4
# Protocol: [^11C]6 and [^11C]9 were prepared via O-methylation of 10 and 11 with [^11C]CH3I in the presence of 0.1 M Bu4NOH in DMF followed by HPLC purification, respectively. [^11C]6 and [^11C]9 were obtained in an average radiochemical yield of 37–44 ± 4% (n = 10, decay corrected) with ≥97% radiochemical and chemical purity. The total synthesis time was 50 ± 5 min end of bombardment and the specific activity were in the range of 0.5–1.2 Ci/μmol at time of injection. The lipophilicities of 6 and 9 (octanol/phosphate buffer partition) were measured. The log P7.4 values of [^11C]6 and [^11C]9 are 2.81 and 2.89, respectively, which are in the optimal range (1.0–3.0) for compounds expected to enter the brain readily.
# 5-HT2CR [3] = biological target: T1, 5-HT2CR (Rattus norvegicus, UniProt P08909); experiment: microPET/CT brain imaging in rats; type: in vivo, Sprague–Dawley rats; details: for effect of pretreatment with SB-242084 on uptake: 0.1 mg/kg SB-242084 prior to injection; for ratio of uptake in choroid plexus to cerebellum, peak / ratio of uptake in hippocampus to cerebellum, peak: i.v., baseline, from time-activity curves
# T1 construct: from tissue; host or cells: brain of living Sprague–Dawley rats (choroid plexus, hippocampus)
# T1 sequence (P08909 33-460): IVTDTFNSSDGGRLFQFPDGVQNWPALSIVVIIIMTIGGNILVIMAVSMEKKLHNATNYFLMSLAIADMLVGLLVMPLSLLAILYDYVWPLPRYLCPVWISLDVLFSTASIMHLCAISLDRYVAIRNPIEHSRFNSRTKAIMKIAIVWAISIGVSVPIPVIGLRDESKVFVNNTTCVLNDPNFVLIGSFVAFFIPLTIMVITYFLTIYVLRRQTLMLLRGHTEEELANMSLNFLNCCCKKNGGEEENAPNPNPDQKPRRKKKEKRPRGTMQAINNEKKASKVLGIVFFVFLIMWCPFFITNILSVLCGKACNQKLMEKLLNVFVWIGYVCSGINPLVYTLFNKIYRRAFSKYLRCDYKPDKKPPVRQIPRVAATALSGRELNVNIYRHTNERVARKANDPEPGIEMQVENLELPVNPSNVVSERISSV
# Protocol: [^11C]6 and [^11C]9 were intravenously administered to Sprague–Dawley rats and brain images were acquired with a Siemens Inveon microPET/CT imaging system, respectively (Figure 2).
# FIGURE 2 PET analysis of [^11C]6 and [^11C]9 in Sprague–Dawley rats. (A) Summed images of [^11C]6 PET/CT data from 10 to 120 min p.i. at baseline. Orange arrows depict choroid plexus; Blue arrows depict hippocampus. (B) Summed images of [^11C]6 PET/CT data from 10 to 120 min p.i. after pretreatment with 0.1 mg/kg of SB-242084. (C) Mean (n = 3) time-activity curves for brain regions of interest of [^11C]6 at baseline with standard error. (D) Mean (n = 3) time-activity curves for brain regions of interest of [^11C]6 after pretreatment with 0.1 mg/kg of SB-242084 with standard error. (E) Mean (n = 3) time-activity curves for brain regions of interest of [^11C]9 at baseline with standard error. (F) Mean (n = 3) time-activity curves for brain regions of interest of [^11C]9 after pretreatment with 0.1 mg/kg of SB-242084 with standard error.
# 5-HT2CR [4] = experiment: microPET brain imaging in rhesus monkeys; type: in vivo; details: rhesus monkey; for effect of pretreatment with SB-242084 on uptake in choroid plexus and hippocampus: target 0.1 mg/kg SB-242084 30 min prior to injection (soluble dose likely much less)
# Text: [^11C]6 and [^11C]9 were further evaluated in rhesus monkeys using a Siemens MicroPET Focus 220 scanner (Figure 3). […] Ratios of uptake in choroid plexus, hippocampus, amygdala, frontal cortex to that in cerebellum peaked at 2.7, 1.6, 1.3, and 1.1, respectively.
# FIGURE 3 PET-MRI analysis of [^11C]6 and [^11C]9 in rhesus monkey. (A) MicroPET images of [^11C]6 (left) and corresponding fused PET/MRI images summed over all time at baseline. (B) MicroPET images [^11C]6 (left) and corresponding fused PET/MRI images summed over all time after pretreatment with 0.1 mg/kg of SB-242084. (C) Time-activity curves of [^11C]6 for brain regions of interest at baseline study. (D) Time-activity curves of [^11C]6 for brain regions after pretreatment with SB-242084. (E) Time-activity curves of [^11C]9 for brain regions of interest at baseline study. (F) Time-activity curves of [^11C]9 for brain regions after pretreatment with SB-242084.
# (§1) To test specific binding of [^11C]6 and [^11C]9 to the choroid plexus and hippocampus, an in vivo microPET blocking study was performed with 0.1 mg/kg SB-242084 30 min prior to injection, respectively. Unfortunately, due to the unexpected low solubility of SB-242084 in the injection form (10% ethanol in saline), the administered SB-242084 in soluble form to the monkeys was likely much less than the target 0.1 mg/kg. As a result, the uptake of [^11C]6 and [^11C]9 in the choroid plexus and hippocampus was still present.
# 5-HT5–7 = experiment: competition binding assay (NIMH PDSP), 5-HT5–7; details: read-out: Binding affinity Ki, 5-HT5–7
# [5] = set-up: method as in Hamprecht et al., 2007; details: ref Hamprecht et al., 2007; cited from earlier work
# 5-HT2B = 5-HT2B (Homo sapiens, UniProt P41595); experiment: competition binding assay (NIMH PDSP), 5-HT2B; details: mean of three experiments ± SD, read-out: Binding affinity Ki, 5-HT2B
# 5-HT2C = biological target: T2, 5-HT2C (Homo sapiens, UniProt P28335); experiment: 5-HT2C competition binding assay with [^3H]mesulergine (NIMH PDSP); details: for Ki: competition with [^3H]mesulergine, mean of three experiments ± SD, read-out: Binding affinity Ki, 5-HT2C; for 5-HT2C binding less than that for 9: relative to compound 9
# T2 sequence (P28335 33-458): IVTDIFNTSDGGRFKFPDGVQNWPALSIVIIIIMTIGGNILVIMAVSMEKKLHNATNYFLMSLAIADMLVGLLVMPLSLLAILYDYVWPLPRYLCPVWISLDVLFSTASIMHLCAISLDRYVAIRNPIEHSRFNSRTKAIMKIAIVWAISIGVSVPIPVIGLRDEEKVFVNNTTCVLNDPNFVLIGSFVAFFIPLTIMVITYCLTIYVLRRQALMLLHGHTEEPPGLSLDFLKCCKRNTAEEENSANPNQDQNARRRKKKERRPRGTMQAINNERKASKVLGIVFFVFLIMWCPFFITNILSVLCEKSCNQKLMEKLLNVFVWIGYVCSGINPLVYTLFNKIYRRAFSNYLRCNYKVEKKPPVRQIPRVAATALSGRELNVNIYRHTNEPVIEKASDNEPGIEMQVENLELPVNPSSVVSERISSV
# Text: (§2) We selected 6 and 9 for carbon-11 radiolabelling and PET imaging studies.
# 5-HT2A [6] = biological target: T3, 5-HT2A (Homo sapiens, UniProt P28223); experiment: primary binding, 5-HT2A
# Text: as §2
# D1-D5 = experiment: competition binding assay (NIMH PDSP), dopamine D1-D5; details: read-out: Binding affinity Ki, D1-D5
# 5-HT2A [7] = biological target: T3, 5-HT2A; experiment: competition binding assay (NIMH PDSP), 5-HT2A; details: read-out: Binding affinity Ki, 5-HT2A
# 5-HT1A = biological target: T4, 5-HT1A (Homo sapiens, UniProt P08908); experiment: competition binding assay (NIMH PDSP), 5-HT1A; details: read-out: Binding affinity Ki, 5-HT1A
# T4 sequence (P08908 1-422): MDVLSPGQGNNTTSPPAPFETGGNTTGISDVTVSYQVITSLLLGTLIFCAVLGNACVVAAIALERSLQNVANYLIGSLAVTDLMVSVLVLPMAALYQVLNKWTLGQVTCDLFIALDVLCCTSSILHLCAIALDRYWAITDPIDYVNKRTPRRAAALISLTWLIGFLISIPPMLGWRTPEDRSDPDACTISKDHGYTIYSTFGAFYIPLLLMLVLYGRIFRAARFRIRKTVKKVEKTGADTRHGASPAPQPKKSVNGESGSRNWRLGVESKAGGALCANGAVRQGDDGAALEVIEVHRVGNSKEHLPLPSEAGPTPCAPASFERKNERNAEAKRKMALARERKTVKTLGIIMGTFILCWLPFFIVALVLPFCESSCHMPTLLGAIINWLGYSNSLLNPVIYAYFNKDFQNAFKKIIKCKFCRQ
# 5-HT2CR [8] = tested on: 5-HT2CR; set-up: method as in Zeng et al., 2018; details: rhesus monkeys; ref Zeng et al., 2018; cited from earlier work
# 5-HT2CR [9] = details: no reference given; cited from earlier work
# [10] = solubility in the injection form; type: physicochemical; details: 10% ethanol in saline
# Protocol: as §1
# T3 sequence (P28223 whole entry, species assumed): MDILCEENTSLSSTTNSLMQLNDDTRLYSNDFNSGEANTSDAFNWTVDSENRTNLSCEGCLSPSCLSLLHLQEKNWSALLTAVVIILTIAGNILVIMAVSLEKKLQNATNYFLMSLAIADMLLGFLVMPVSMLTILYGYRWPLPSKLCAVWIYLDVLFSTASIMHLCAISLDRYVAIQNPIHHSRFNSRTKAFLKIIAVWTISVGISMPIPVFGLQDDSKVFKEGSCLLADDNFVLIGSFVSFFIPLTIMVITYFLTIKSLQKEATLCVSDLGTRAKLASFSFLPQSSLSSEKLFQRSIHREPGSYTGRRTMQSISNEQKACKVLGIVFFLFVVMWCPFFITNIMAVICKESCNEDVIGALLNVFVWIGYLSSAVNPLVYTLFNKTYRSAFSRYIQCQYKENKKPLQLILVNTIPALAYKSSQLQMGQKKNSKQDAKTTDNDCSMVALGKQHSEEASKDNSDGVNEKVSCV
# Chain of 5-HT2B (P41595 whole entry, species assumed): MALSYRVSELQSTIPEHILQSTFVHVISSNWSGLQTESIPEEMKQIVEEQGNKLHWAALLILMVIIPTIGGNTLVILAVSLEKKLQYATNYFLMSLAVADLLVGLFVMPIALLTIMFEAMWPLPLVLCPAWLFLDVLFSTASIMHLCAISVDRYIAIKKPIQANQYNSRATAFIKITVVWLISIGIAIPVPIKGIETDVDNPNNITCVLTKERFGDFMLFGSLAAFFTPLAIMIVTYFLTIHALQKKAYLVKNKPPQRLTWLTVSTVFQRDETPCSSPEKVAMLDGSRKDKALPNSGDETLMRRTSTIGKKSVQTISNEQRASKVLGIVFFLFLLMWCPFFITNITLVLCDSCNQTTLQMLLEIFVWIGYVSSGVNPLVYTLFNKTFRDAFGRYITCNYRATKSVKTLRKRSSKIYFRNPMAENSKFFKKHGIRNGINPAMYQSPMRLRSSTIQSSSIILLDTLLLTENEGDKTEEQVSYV
compound,measurement,setting,value
c1cc2c3c(c1)[C@H]1CCC[C@H]1N3CCN[11CH2]2 [[^11C]WAY-163909],non-specific binding in baboon brains,5-HT2CR [1],high
"CC1CCN(CCOc2cc(N3Cc4cccc(Cl)c4C3=O)ccc2O[11CH3])CC1 [[^11C]6, [^11C]7-Chloro-2-[4-methoxy-3-[2-(4-methylpiperidin-1-yl)ethoxy]phenyl]isoindolin-1-one]",logD,[2],2.81
same,effect of pretreatment with SB-242084 on uptake,5-HT2CR [3],reduction of radioactivity uptake in choroid plexus and hippocampus to the same level as of the cerebellum
same,"ratio of uptake in choroid plexus to cerebellum, peak",5-HT2CR [3],1.8
same,"ratio of uptake in hippocampus to cerebellum, peak",5-HT2CR [3],1.2
same,blood-brain barrier penetration,5-HT2CR [4],excellent
same,SUV in choroid plexus (peak uptake),5-HT2CR [4]; baseline,5.6
same,SUV in hippocampus,5-HT2CR [4]; baseline,4.6
same,"ratio of uptake in amygdala to cerebellum, peak",5-HT2CR [4]; baseline,1.3
same,"ratio of uptake in choroid plexus to cerebellum, peak",5-HT2CR [4]; baseline,2.7
same,"ratio of uptake in frontal cortex to cerebellum, peak",5-HT2CR [4]; baseline,1.1
same,"ratio of uptake in hippocampus to cerebellum, peak",5-HT2CR [4]; baseline,1.6
same,time of peak radioactivity uptake in choroid plexus,"5-HT2CR [4]; baseline, after injection",20 to 30 min
same,"time of peak uptakes in hippocampus, amygdala, frontal cortex and cerebellum","5-HT2CR [4]; baseline, postinjection",9.5 to 18.5 min
same,effect of pretreatment with SB-242084 on uptake in choroid plexus and hippocampus,5-HT2CR [4],a reduction in the uptake and faster washout
"COc1ccc(N2Cc3cccc(Cl)c3C2=O)cc1OCCN1CCC(C)CC1 [Compound 6, 7-chloro-2-[4-methoxy-3-[2-(4-methylpiperidin-1-yl)ethoxy]phenyl]isoindolin-1-one]",Ki,5-HT5–7,> 1000 nM
same,brain permeability as measured by brain to blood plasma ratio,[5],great
same,Ki,5-HT2B,194 ± 74 nM
same,Ki,5-HT2C,2.2 ± 0.3 nM
same,5-HT2C binding less than that for 9,5-HT2C,2–3 times
same,primary bindings at 5-HT2A,5-HT2A [6],< 50%
same,Ki,D1-D5,> 1000 nM
same,Ki,5-HT2A [7],> 1000 nM
same,Ki,5-HT1A,> 1000 nM
"Cc1ccc2c(C(=O)Nc3ccc(Oc4cccnc4C)nc3)c[nH]c2c1 [[^11C]5, 6-methyl-N-[6-[(2-methyl-3-pyridinyl)oxy]-3-pyridinyl]1H-indole-3-carboxamide]",level of specific binding in the choroid plexus,5-HT2CR [8],high
same,overall brain uptake and retention,5-HT2CR [8],low
"COc1ccc(N2Cc3cccc(I)c3C2=O)cc1OCCN1CCC(C)CC1 [Compound 9, 7-iodo-2-[4-methoxy-3-[2-(4-methylpiperidin-1-yl)ethoxy]phenyl]isoindolin-1-one]",Ki,5-HT5–7,> 1000 nM
same,Ki,5-HT2B,126 ± 28 nM
same,Ki,5-HT2C,1.1 ± 0.3 nM
same,primary bindings at 5-HT2A,5-HT2A [6],< 50%
same,Ki,D1-D5,> 1000 nM
same,Ki,5-HT2A [7],> 1000 nM
same,Ki,5-HT1A,> 1000 nM
"CC1CCN(CCOc2cc(N3Cc4cccc(I)c4C3=O)ccc2O[11CH3])CC1 [[^11C]9, [^11C]7-iodo-2-[4-methoxy-3-[2-(4-methylpiperidin-1-yl)ethoxy]phenyl]isoindolin-1-one]",logD,[2],2.89
same,effect of pretreatment with SB-242084 on uptake,5-HT2CR [3],reduction of radioactivity uptake in choroid plexus and hippocampus to the same level as of the cerebellum
same,"ratio of uptake in choroid plexus to cerebellum, peak",5-HT2CR [3],1.9
same,"ratio of uptake in hippocampus to cerebellum, peak",5-HT2CR [3],1.3
same,blood-brain barrier penetration,5-HT2CR [4],excellent
same,SUV in choroid plexus (peak uptake),5-HT2CR [4]; baseline,2.01
same,SUV in hippocampus,5-HT2CR [4]; baseline,1.46
same,"ratio of uptake in choroid plexus to cerebellum, peak",5-HT2CR [4]; baseline,3.7
same,"ratio of uptake in hippocampus to cerebellum, peak",5-HT2CR [4]; baseline,2.7
same,time of peak uptake in choroid plexus and hippocampus,"5-HT2CR [4]; baseline, after injection",25 to 55 min
same,effect of pretreatment with SB-242084 on uptake in choroid plexus and hippocampus,5-HT2CR [4],a reduction in the uptake and faster washout
Cc1cc2c(cc1Cl)N(C(=O)Nc1ccc(Oc3cccnc3C)nc1)CC2 [SB-242084],Ki,5-HT2CR [9],3.6 nM
same,solubility in the injection form,[10],low
COc1ccc(N2Cc3cccc(F)c3C2=O)cc1OCCN1CCC(C)CC1 [Compound 8],Ki,5-HT5–7,> 1000 nM
same,Ki,5-HT2B,434 ± 204 nM
same,Ki,5-HT2C,28 ± 14 nM
same,Ki,D1-D5,> 1000 nM
same,Ki,5-HT2A [7],> 1000 nM
same,Ki,5-HT1A,> 1000 nM
c1cc2c3c(c1)[C@H]1CCC[C@H]1CN3CCN[11CH2]2 [[^11C]Vabicaserin],non-specific binding in baboon brains,5-HT2CR [1],high
COc1ccc(N2Cc3cccc(Br)c3C2=O)cc1OCCN1CCC(C)CC1 [Compound 7],Ki,5-HT5–7,> 1000 nM
same,brain permeability as measured by brain to blood plasma ratio,[5],great
same,Ki,5-HT2B,177 ± 75 nM
same,Ki,5-HT2C,2.9 ± 0.7 nM
same,5-HT2C binding less than that for 9,5-HT2C,2–3 times
same,primary bindings at 5-HT2A,5-HT2A [6],< 50%
same,Ki,D1-D5,> 1000 nM
same,Ki,5-HT2A [7],> 1000 nM
same,Ki,5-HT1A,> 1000 nM
